Experiments:
[1] = biological target: T1, Full length DGKα (D21-10BG, SignalChem) (Homo sapiens, UniProt P23743); assay: Biochemical DGK IC50 assay (ADP-Glo, lipid micelle substrate), DGKα; settings: 1 hour preincubation, 1 hour reaction, room temperature
T1 construct: Full length DGKα (D21-10BG, SignalChem); purchased SignalChem D21-10BG
Experimental: (§1) Enzymatic reactions of DGKζ, DGKα and DGKδ were performed using ADP-Glo assay with lipid micelle substrate. […] Full length DGKα (D21-10BG, SignalChem) and full length DGKδ (D23-10G, SignalChem) were purchased. Lipid micelle was prepared by dissolving DAG (Sigma, 317505-10 MG) and PS (Sigma, P7769-100 MG) with chloroform which was furtherly removed by rotary evaporation. The obtained residue was resuspended in buffer containing 25 mM HEPES pH 7.0, 0.5 mM EDTA and 160 mM Octyl β-D glucopyranoside by vigorous mixing and ultrasonic (IID, Scientz).
(§2) The inhibition activities testing for the compound disclosed herein were carried out at room temperature in assay buffer containing 50 mM HEPES, 10 mM MgCl2, 0.01% BSA, 0.1 mM Na3VO4, 0.005% Tween-20 and 0.01 mM CaCl2). Compounds in DMSO were dispensed into wells of a black 384 well plate (Corning 4514) using D300e digital dispenser (Tecan). […] 3 μL 2× enzyme solution was added to wells. […] After 1 hour reaction, 5 μL ADP-Glo reagent (Promga V9101) was added and incubated for 40 minutes. 10 μL Kinase Detection reagent was added and incubated for 30 minutes. Luminescence was measured on a microplate reader (PHERAstar FSX, BMG labtech). The IC50S are calculated based on inhibition of enzyme activity in the presence of increasing concentrations of compounds.

[2] = biological target: T2, Full length DGKζ (in-house protein M1-V929) (Homo sapiens, UniProt Q13574); assay: Biochemical DGK IC50 assay (ADP-Glo, lipid micelle substrate), DGKζ; settings: 1 hour preincubation, 1 hour reaction, room temperature
T2 construct: His (N); TEV site (N); made in house; host or cells: Sf9 insect cells (Bac-to-Bac baculovirus)
Experimental: as §1, §2
Human His-TEV-DGK-zeta-pFastBac1 and human baculovirus samples was generated using the Bac- to -Bac baculovirus expression system (Invitrogen) according to the manufacturer's protocol. The DNA used for expression of DGK-zeta, have SEQ ID Nos: 1. Baculovirus amplification was achieved using infected SF9 cells at 1:2000 virus/cells ratios, and grown for 96 hours at 27° C. post-transfected.
The expression scaled up for each protein was carried out in the […] from CORNING. 4 L of 3×10^6 cells/mL Sf9 cells (Expression System, Invitrogen) grown in SF900™ II SFM insect medium (Expression System) was infected with virus stock at 1:200 virus/cells ratio, and grown for 48 hours at 27° C. post-transfection. The infected cell culture was harvested by centrifugation at 6000 rpm for 15 min 4° C. in a SORVALL LYNX6000 centrifuge. The cell pellets were stored at −80° C.
Full length human DGKζ produced as described above, was purified from Sf9 baculovirus-infected insect cell paste. The cells were lysed using sonication method, and the lysates were clarified by centrifugation.

T1 sequence (P23743 whole entry): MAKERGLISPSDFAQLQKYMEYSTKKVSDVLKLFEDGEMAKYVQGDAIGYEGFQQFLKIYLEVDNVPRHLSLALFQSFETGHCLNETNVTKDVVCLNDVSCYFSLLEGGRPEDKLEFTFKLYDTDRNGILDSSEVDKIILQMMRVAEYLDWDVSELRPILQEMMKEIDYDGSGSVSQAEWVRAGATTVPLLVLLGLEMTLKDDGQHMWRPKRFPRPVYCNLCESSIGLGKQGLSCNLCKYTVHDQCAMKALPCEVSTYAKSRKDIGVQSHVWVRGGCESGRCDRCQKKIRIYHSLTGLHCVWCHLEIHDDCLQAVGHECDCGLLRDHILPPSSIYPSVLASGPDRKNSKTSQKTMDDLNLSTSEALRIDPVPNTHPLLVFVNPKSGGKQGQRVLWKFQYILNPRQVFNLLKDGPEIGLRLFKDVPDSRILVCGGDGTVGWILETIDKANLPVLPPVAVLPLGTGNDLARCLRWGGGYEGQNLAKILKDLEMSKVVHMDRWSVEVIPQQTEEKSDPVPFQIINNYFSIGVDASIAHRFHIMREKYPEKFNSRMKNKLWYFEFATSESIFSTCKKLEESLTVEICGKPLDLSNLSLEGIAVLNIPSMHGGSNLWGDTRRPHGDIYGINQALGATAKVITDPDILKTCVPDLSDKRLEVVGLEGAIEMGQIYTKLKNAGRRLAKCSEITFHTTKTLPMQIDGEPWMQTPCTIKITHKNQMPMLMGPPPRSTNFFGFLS
T2 sequence (Q13574 1-929 isoform Q13574-4): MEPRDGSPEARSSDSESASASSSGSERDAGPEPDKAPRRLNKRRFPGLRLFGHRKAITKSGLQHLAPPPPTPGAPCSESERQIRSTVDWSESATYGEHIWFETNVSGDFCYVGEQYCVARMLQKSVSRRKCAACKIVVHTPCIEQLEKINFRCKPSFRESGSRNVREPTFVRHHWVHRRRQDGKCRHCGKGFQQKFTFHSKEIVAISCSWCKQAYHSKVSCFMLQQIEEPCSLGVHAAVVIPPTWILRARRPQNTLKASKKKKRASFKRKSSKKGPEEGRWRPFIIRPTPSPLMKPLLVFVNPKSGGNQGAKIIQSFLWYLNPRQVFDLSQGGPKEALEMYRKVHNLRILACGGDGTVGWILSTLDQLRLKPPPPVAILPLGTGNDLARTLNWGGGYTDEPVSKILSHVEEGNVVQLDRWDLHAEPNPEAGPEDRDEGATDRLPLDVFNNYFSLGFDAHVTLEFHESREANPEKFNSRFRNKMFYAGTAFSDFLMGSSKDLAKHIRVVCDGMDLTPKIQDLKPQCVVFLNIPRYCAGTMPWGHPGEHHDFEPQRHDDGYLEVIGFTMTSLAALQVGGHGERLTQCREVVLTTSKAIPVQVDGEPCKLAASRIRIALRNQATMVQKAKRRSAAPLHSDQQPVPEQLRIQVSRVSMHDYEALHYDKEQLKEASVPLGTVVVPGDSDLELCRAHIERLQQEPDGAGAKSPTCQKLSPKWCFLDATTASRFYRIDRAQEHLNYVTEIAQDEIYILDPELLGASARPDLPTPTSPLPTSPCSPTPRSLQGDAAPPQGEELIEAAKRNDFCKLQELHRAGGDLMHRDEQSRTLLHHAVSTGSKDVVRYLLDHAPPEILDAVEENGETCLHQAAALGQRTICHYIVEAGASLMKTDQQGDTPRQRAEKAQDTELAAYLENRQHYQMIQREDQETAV

| IC50 [1] [nM] | IC50 [2] [nM] | SMILES |
| --- | --- | --- |
| 10100 | 2 | CCn1c(=O)nc(N2C[C@@H](C)N(C(C)c3ccc4c(c3)OC(C)(C)CO4)C[C@@H]2C)c2nc(CC#N)n(C)c21 (single isomer, unassigned) [Compound A61a] |
| > 10000 | 64 | COc1cc(F)ccc1C(C)N1C[C@H](C)N(c2cc(=O)n(C)c3c2nc(CC#N)n3C)C[C@H]1C (single isomer, unassigned) [Compound A4b] |
| 20200 | 19 | CC(c1ccc2nccnc2c1)N1C[C@H](C)N(c2cc(=O)n(C)c3c2nc(CC#N)n3C)C[C@H]1C (stereo partly drawn) [Compound A1, 2-(7-((2S,5R)-2,5-dimethyl-4-(1-(quinoxalin-6-yl)ethyl)piperazin-1-yl)-3,4-dimethyl-5-oxo-4,5-dihydro-3H-imidazo[4,5-b]pyridin-2-yl)acetonitrile] |
| 63200 | 8 | Cc1cnc2ccc(C(C)N3C[C@H](C)N(c4c(F)c(=O)n(C)c5c4nc(CC#N)n5C)C[C@H]3C)cc2n1 (single isomer, unassigned) [Compound A23a] |
| 6090 | 147 | CC(c1cc2c(cc1F)OCC(C)(C)O2)N1C[C@H](C)N(c2nc(=O)n(C)c3c2nc(CC#N)n3C)C[C@H]1C (single isomer, unassigned) [Compound A69b] |
| > 150000 | 771 | CCn1c(CC#N)nc2c(N3C[C@@H](C)N(C(C)c4cccc(C(C)(C)O)c4)C[C@@H]3C)nc(=O)n(C)c21 (stereo partly drawn) [Compound A111, 2-(9-ethyl-6-((2S,5R)-4-(1-(3-(2-hydroxypropan-2-yl)phenyl)ethyl)-2,5-dimethylpiperazin-1-yl)-3-methyl-2-oxo-3,9-dihydro-2H-purin-8-yl)acetonitrile] |
| 88600 | 14 | CCn1c(CC#N)nc2c(N3C[C@@H](C)N(C(C)c4ccc5c(c4)OC(C)(C)O5)C[C@@H]3C)nc(=O)n(C)c21 (single isomer, unassigned) [Compound A85b] |
| 24700 | 4 | CC[C@@H]1CN(c2nc(=O)n(C)c3c2nc(CC#N)n3C)[C@@H](C)CN1C(C)c1ccc2ncc(C)nc2c1 (single isomer, unassigned) [Compound A50a] |
| 48700 | 64 | CCn1c(CC#N)nc2c(N3C[C@@H](C)N(C(C)c4ccc(C(F)(F)F)c(C)c4)C[C@@H]3C)nc(=O)n(C)c21 (stereo partly drawn) [Compound A137, 2-(6-((2S,5R)-2,5-dimethyl-4-(1-(3-methyl-4-(trifluoromethyl)phenyl)ethyl)piperazin-1-yl)-9-ethyl-3-methyl-2-oxo-3,9-dihydro-2H-purin-8-yl)acetonitrile] |

Further lines, the compound ahead of its results:

| SMILES | IC50 [1] [nM] | IC50 [2] [nM] |
| --- | --- | --- |
| CCn1c(CC#N)nc2c(N3C[C@@H](C)N(C(C)c4cccc(OC(C)C)n4)C[C@@H]3C)nc(=O)n(C)c21 (single isomer, unassigned) [Compound A117b] | 145000 | 75 |
| CCn1c(CC#N)nc2c(N3C[C@@H](C)N(C(C)c4ccc5c(c4)OC(C)(C)CO5)C[C@@H]3C)c(F)c(=O)n(C)c21 (stereo partly drawn) [Compound A20, 2-(7-((2S,5R)-4-(1-(3,3-dimethyl-2,3-dihydrobenzo[b][1,4]dioxin-6-yl)ethyl)-2,5-dimethylpiperazin-1-yl)-3-ethyl-6-fluoro-4-methyl-5-oxo-4,5-dihydro-3H-imidazo[4,5-b]pyridin-2-yl)acetonitrile] | 93000 | 5 |
| CCn1c(CC#N)nc2c(N3C[C@@H](C)N(C(C)c4ccc5c(c4F)OC(C)(C)O5)C[C@@H]3C)nc(=O)n(C)c21 (single isomer, unassigned) [Compound A175b] | 21400 | 4 |
| CCn1c(CC#N)nc2c(N3C[C@@H](C)N(C(C)c4ccc(C(F)(F)F)cc4)C[C@@H]3C)nc(=O)n(C)c21 (stereo partly drawn) [Compound A40, 2-(6-((2S,5R)-2,5-dimethyl-4-(1-(4-(trifluoromethyl)phenyl)ethyl)piperazin-1-yl)-9-ethyl-3-methyl-2-oxo-3,9-dihydro-2H-purin-8-yl)acetonitrile] | 25900 | 398 |
| CCn1c(CC#N)nc2c(N3C[C@@H](C)N(C(C)c4ccc5c(n4)C(F)(F)CCO5)C[C@@H]3C)nc(=O)n(C)c21 (stereo partly drawn) [Compound A102, 2-(6-((2S,5R)-4-(1-(4,4-difluoro-3,4-dihydro-2H-pyrano[3,2-b]pyridin-6-yl)ethyl)-2,5-dimethylpiperazin-1-yl)-9-ethyl-3-methyl-2-oxo-3,9-dihydro-2H-purin-8-yl)acetonitrile] | > 150000 | 37 |
| CCn1c(CC#N)nc2c(N3C[C@@H](C)N(C(=O)c4ccc5c(n4)C(C)(C)CO5)C[C@@H]3C)nc(=O)n(C)c21 [Compound A182, 2-(6-((2S,5R)-4-(3,3-dimethyl-2,3-dihydrofuro[3,2-b]pyridine-5-carbonyl)-2,5-dimethylpiperazin-1-yl)-9-ethyl-3-methyl-2-oxo-3,9-dihydro-2H-purin-8-yl)acetonitrile] | > 150000 | 499 |
| CC(c1ccc2c(c1)OC(C)(C)CO2)N1C[C@H](C)N(c2nc(=O)n(C)c3c2nc(CC#N)n3C)C[C@H]1C (single isomer, unassigned) [Compound A59a] | 40300 | 238 |
| CC[C@@H]1CN(c2nc(=O)n(C)c3c2nc(CC#N)n3C)[C@@H](C)CN1C(C)c1ccc2c(n1)OC(C)(C)CO2 (single isomer, unassigned) [Compound A159b] | 63400 | 691 |
| CCn1c(CC#N)nc2c(N3C[C@@H](C)N(C(C)c4ccc5c(n4)C(C)(C)CO5)C[C@@H]3C)nc(=O)n(C)c21 (stereo partly drawn) [Compound A181, 2-(6-((2S,5R)-4-(1-(3,3-dimethyl-2,3-dihydrofuro[3,2-b]pyridin-5-yl)ethyl)-2,5-dimethylpiperazin-1-yl)-9-ethyl-3-methyl-2-oxo-3,9-dihydro-2H-purin-8-yl)acetonitrile] | > 150000 | 17 |
| CCn1c(CC#N)nc2c(N3C[C@@H](C)N(C(C)c4cccc(C(C)C)c4)C[C@@H]3C)nc(=O)n(C)c21 (single isomer, unassigned) [Compound A108b] | 95800 | 822 |
| CCn1c(CC#N)nc2c(N3C[C@@H](C)N(C(C)c4ccc5c(=O)cc(C)n(C)c5c4)C[C@@H]3C)nc(=O)n(C)c21 (stereo partly drawn) [Compound A155, 2-(6-((2S,5R)-4-(1-(1,2-dimethyl-4-oxo-1,4-dihydroquinolin-7-yl)ethyl)-2,5-dimethylpiperazin-1-yl)-9-ethyl-3-methyl-2-oxo-3,9-dihydro-2H-purin-8-yl)acetonitrile] | 101000 | 1210 |
| CC(c1cccnc1C(F)(F)F)N1C[C@H](C)N(c2cc(=O)n(C)c3c2nc(CC#N)n3C)C[C@H]1C (single isomer, unassigned) [Compound A7b] | 97600 | 35 |
| CCn1c(CC#N)nc2c(N3C[C@@H](C)N(C(C)c4ccc5c(c4)CN(CC(F)(F)F)C5=O)C[C@@H]3C)nc(=O)n(C)c21 (stereo partly drawn) [Compound A82, 2-(6-((2S,5R)-2,5-dimethyl-4-(1-(1-oxo-2-(2,2,2-trifluoroethyl)isoindolin-5-yl)ethyl)piperazin-1-yl)-9-ethyl-3-methyl-2-oxo-3,9-dihydro-2H-purin-8-yl)acetonitrile] | 9520 | 201 |
| CCn1c(CC#N)nc2c(N3C[C@@H](C)N(C(C)c4cccc(OC(C)C)c4)C[C@@H]3C)nc(=O)n(C)c21 (stereo partly drawn) [Compound A43, 2-(9-ethyl-6-((2S,5R)-4-(1-(3-isopropoxyphenyl)ethyl)-2,5-dimethylpiperazin-1-yl)-3-methyl-2-oxo-3,9-dihydro-2H-purin-8-yl)acetonitrile] | 101000 | 79 |
| CC[C@H]1CN(C(C)c2ccc3c(c2)OC(C)(C)CO3)[C@H](CC)CN1c1nc(=O)n(C)c2c1nc(CC#N)n2CC (stereo partly drawn) [Compound A67, 2-(6-((2S,5R)-4-(1-(3,3-dimethyl-2,3-dihydrobenzo[b][1,4]dioxin-6-yl)ethyl)-2,5-diethylpiperazin-1-yl)-9-ethyl-3-methyl-2-oxo-3,9-dihydro-2H-purin-8-yl)acetonitrile] | 118000 | 10 |
